Measured values from patent publication US12414948B2, “Methods” (INTRA-CELLULAR THERAPIES, INC., priority 2022, dated 2025).

How the values were obtained:
[1] = system: PBMCs from patients with schizophrenia and co-morbid depression; test: Post-hoc analysis of inflammatory biomarkers in PBMCs, phase 3 clinical trial; type: in vivo, human
Procedure: A randomized, double-blind, placebo-controlled, phase 3 clinical trial was conducted with 450 patients with schizophrenia, aged 18 to 60 years, who were experiencing an acute exacerbation of psychosis. Patients were included if they were experiencing an acute exacerbation of psychosis, defined as a total score on the Brief Psychiatric Rating Scale of […] or higher, with a score of 4 or higher on 2 or more positive symptoms, and onset of the acute episode within 4 weeks of screening. Patients were required to have a score of 4 or higher, indicating moderate to severe disease severity, on the Clinical Global Impression-Severity of Illness (CGI-S) at screening and baseline. Severity of illness was confirmed at baseline by a Positive and Negative Syndrome Scale (PANSS) total score of 70 or higher, indicating moderate to extreme symptoms of schizophrenia. A subgroup of these patients experienced co-morbid depression symptoms at baseline (defined as having a Calgary Depression Scale for Schizophrenia (CDSS) score greater than 6 at baseline). Full details of the clinical study were reported in Correll et al., JAMA Psychiatry, 77(4): 349-358 (2020).
Using blood samples stored from the study, a post-hoc analysis of inflammatory biomarkers in PBMCs from the patients with schizophrenia and co-morbid depression is conducted. […] Day 0 samples are available for 20 patients, while day 28 samples are available only for 18 patients. Mean baseline CDSS is 10.0, and mean baseline PANSS total score is 88.7 in the selected patients.
Samples were processed to isolate PBMC according to standard procedures using the Ficoll-Paque method. Statistical analysis was performed using the paired t-test, two-tailed. Samples were tested for C-reactive protein (CRP), serum amyloid A (SAA), soluble CAM-1, soluble VCAM-1, IL-1β, TNF-αL, IL-6, IL-10, IL-2, IL-8, IL-13, and IFN-γ. ICAM-1 and VCAM-1 are expressed by the vascular endothelium, macrophages, and lymphocytes. Upon cytokine stimulation, their concentrations greatly increase. ICAM-1 can be induced by IL-1β and TNF. ICAM and VCAM proteins may also be involved in pathogen transit into CNS.
The results are shown in the table below (biomarker levels expressed in ng/mL; some values of N are less than the patient totals due to samples with levels of biomarker below the minimum for quantification): […]

Sprague-Dawley rats = test: Reward sniffing test (female urine sniffing test, FUST), LPS-induced anhedonia; type: in vivo, rat; settings: rats given LPS 1 mg/kg SC, label LPS = LPS + Vehicle, label Luma = Luma 1 mg/kg IP 24 h before and 24 h after LPS
Procedure: All other reagents are obtained in the highest purity available from Sigma-Aldrich (St. Louis, MO) unless otherwise noted. […] Some rodents are given a cotreatment with a subcutaneous (SC) injection of lipopolysaccharide (LPS, 500 μg/kg; Sigma-Aldrich, ref #0127:B8) diluted in 0.9% injectable saline while control group animals receive injections of all vehicles matching the experimental conditions. […] On day 2, either no injection for naïve rats, or saline or LPS is injected (1 mg/kg, SC).
Behavioral Evaluation. All behavioral tests are performed in the morning with adult male Sprague-Dawley rats (n=9-11 per group for the experiments with LPS, and n=13-14 per group for the naïve rats).
Reward Sniffing Test (also known also as female urine sniffing test (FUST)): In this anhedonia-based assay, rats are brought to a well-ventilated testing room under dim lighting. A sterile cotton-tipped applicator is attached to one wall in the home cage for 1 hour to habituate rats to this new object. For the 2 phases of the 5 minute test, rats are first exposed to a new cotton tip dipped in sterile water as a control that is removed at the end of the 5 minutes; 45 minutes later, another cotton tip previously dipped into fresh rat urine collected from females of the same strain is attached to the cage wall. Male behavior is video recorded and latency to first sniff of the cotton tip and total time spent sniffing the cotton-tipped applicator are determined.
In a pilot study, a dose response curve is conducted with varying doses of LPS to select an optimal dose for inducing an anhedonic response in rats. Based on these studies, a SC dose of 1 mg/kg LPS is selected. […] This is followed 24 hours later by an injection of LPS (1 mg/kg; SC). […] Control rats are administered saline instead of LPS and vehicle instead of lumateperone. Anhedonia is assessed using FUST (female urine sniffing test) and measuring latency to sniff the reward combined with time spent sniffing the reward. Latency sniffing water is used as a control. […]

[2] = Day 28 of 60 mg lumateperone once daily, PBMC, schizophrenia patients with co-morbid depression

CN1CCN2c3c(cccc31)[C@@H]1CN(CCCC(=O)c3ccc(F)cc3)CC[C@@H]12 [Luma, lumateperone]
CRP, Median [1, 2]: 38.0 ng/mL | IFN-γ, Average [1, 2]: 0.86 ng/mL | IFN-γ, Median [1, 2]: 0.71 ng/mL | IL-1β, Median [1, 2]: 0.74 ng/mL | IL-2, Average [1, 2]: 0.37 ng/mL | IL-2, Median [1, 2]: 0.25 ng/mL | IL-6, Average [1, 2]: 0.55 ng/mL | IL-6, Median [1, 2]: 0.32 ng/mL | IL-8, Median [1, 2]: 44.0 ng/mL | IL-10, Median [1, 2]: 0.21 ng/mL | TNF-α, Average [1, 2]: 0.83 ng/mL | TNF-α, Median [1, 2]: 0.43 ng/mL | sVCAM-1, Median [1, 2]: 42.0 ng/mL | Levels of inflammatory biomarkers in blood cells (PBMCs) ([1]; after 28 days of treatment, versus baseline, patients with schizophrenia and co-morbid depression): significantly reduced

lipopolysaccharide [LPS, reference compound]
FUST Latency sniffing water (Sprague-Dawley rats; control test): 274.27 s | FUST Latency sniffing reward (Sprague-Dawley rats): 164.2 s | FUST Time sniffing reward (Sprague-Dawley rats): 11.11 s
